Measurements reported in paper PMC10528299, “Targeting FAK/PYK2 with SJP1602 for Anti-Tumor Activity in Triple-Negative Breast Cancer” (Current Issues in Molecular Biology, 2023).

Tests used:
Assay in all cases: Eurofins kinase profiling
Assay type in all cases: biochemical
ALK(h) = biological target: T1, ALK(h) (Homo sapiens, UniProt Q9UM73); details: for remaining activity at 1 µM: read-out: residual kinase activity ALK(h)
T1 construct: purchased Eurofins KinaseProfiler
Procedure, shortened: (§1)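 At a fixed 1 µM, the compound was profiled against each kinase, whose activity was quantified through radiolabeled phosphate incorporation.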

Abl(T315I)(h) = biological target: T2, Abl(T315I)(h) (Homo sapiens, UniProt P00519, T315I); details: read-out: residual kinase activity Abl(T315I)(h)
T2 construct: purchased Eurofins KinaseProfiler
Procedure, shortened: as §1

FGFR2(h) = biological target: T3, FGFR2(h) (Homo sapiens, UniProt P21802); details: read-out: residual kinase activity FGFR2(h)
T3 construct: purchased Eurofins KinaseProfiler
T3 sequence (P21802 22-821): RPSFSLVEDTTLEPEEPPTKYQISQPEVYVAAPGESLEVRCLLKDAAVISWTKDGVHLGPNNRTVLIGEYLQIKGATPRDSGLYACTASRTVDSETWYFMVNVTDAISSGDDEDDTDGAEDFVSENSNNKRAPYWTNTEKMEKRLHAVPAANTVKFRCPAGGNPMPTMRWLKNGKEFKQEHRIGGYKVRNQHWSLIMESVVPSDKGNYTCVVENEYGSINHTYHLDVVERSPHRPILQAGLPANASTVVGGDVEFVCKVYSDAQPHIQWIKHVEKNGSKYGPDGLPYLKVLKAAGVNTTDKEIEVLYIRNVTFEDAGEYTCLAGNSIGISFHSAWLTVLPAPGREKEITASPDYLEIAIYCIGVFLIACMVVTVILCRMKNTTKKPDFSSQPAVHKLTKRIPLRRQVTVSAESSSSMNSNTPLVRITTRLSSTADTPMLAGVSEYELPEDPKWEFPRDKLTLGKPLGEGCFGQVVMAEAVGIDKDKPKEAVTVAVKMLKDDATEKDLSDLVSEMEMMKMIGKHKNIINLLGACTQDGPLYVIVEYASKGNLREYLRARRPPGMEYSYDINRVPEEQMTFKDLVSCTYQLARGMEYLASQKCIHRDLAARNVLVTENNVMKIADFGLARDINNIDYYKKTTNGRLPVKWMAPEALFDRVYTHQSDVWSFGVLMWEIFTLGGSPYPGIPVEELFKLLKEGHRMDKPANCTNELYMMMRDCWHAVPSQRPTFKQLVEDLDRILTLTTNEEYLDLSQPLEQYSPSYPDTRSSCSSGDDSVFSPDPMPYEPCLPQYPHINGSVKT
Procedure, shortened: as §1

FGFR4(h) = biological target: T4, FGFR4(h) (Homo sapiens, UniProt P22455); details: read-out: residual kinase activity FGFR4(h)
T4 construct: purchased Eurofins KinaseProfiler
T4 sequence (P22455 22-802): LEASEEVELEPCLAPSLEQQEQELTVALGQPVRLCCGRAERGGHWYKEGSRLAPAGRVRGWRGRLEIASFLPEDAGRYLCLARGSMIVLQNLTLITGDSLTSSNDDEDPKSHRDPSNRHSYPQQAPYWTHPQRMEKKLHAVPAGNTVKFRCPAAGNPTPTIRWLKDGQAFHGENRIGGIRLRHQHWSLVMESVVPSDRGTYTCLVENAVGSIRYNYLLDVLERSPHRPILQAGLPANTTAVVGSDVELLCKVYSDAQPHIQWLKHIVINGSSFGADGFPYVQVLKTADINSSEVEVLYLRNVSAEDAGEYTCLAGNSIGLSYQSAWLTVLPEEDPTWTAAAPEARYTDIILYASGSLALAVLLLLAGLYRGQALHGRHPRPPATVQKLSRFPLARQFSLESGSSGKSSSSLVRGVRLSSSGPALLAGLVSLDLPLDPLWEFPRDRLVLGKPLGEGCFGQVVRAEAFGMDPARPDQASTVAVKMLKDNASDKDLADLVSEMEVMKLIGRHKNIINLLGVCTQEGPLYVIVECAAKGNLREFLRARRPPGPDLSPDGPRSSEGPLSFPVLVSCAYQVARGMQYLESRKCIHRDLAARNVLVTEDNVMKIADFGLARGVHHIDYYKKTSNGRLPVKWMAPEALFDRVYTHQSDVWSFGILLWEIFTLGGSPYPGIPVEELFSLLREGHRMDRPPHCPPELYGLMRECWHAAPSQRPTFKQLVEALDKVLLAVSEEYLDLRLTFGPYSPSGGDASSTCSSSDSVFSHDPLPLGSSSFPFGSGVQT
Procedure, shortened: as §1

Flt3(D835Y)(h) = biological target: T5, Flt3(D835Y)(h) (Homo sapiens, UniProt P36888, D835Y); details: read-out: residual kinase activity Flt3(D835Y)(h)
T5 construct: purchased Eurofins KinaseProfiler
T5 sequence (P36888 27-993 D835Y): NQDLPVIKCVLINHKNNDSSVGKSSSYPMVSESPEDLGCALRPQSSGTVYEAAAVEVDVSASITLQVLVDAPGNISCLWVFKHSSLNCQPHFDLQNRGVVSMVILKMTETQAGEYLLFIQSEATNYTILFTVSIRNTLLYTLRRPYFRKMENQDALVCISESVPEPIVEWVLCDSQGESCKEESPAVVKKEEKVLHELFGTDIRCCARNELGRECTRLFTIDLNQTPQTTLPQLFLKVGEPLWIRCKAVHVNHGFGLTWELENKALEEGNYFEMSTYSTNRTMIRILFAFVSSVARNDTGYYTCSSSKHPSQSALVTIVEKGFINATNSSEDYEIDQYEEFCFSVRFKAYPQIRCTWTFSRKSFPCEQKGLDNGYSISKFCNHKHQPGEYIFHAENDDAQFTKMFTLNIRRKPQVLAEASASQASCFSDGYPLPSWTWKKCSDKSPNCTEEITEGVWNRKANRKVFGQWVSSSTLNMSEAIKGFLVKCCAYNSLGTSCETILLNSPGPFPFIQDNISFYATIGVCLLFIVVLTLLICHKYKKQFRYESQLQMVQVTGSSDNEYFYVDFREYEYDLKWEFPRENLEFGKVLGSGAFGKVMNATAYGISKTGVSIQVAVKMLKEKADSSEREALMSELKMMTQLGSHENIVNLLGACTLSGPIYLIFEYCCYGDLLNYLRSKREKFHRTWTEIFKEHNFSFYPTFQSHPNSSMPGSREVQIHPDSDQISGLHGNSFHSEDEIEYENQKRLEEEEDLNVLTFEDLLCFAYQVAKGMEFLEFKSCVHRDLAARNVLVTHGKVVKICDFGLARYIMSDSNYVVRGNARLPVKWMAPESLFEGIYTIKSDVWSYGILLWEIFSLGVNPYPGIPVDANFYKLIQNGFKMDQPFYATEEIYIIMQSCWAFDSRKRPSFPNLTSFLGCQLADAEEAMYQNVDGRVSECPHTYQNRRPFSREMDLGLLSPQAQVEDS
Procedure, shortened: as §1

KDR(h) = biological target: T6, KDR(h) (Homo sapiens, UniProt P35968); details: read-out: residual kinase activity KDR(h)
T6 construct: purchased Eurofins KinaseProfiler
T6 sequence (P35968 20-1356): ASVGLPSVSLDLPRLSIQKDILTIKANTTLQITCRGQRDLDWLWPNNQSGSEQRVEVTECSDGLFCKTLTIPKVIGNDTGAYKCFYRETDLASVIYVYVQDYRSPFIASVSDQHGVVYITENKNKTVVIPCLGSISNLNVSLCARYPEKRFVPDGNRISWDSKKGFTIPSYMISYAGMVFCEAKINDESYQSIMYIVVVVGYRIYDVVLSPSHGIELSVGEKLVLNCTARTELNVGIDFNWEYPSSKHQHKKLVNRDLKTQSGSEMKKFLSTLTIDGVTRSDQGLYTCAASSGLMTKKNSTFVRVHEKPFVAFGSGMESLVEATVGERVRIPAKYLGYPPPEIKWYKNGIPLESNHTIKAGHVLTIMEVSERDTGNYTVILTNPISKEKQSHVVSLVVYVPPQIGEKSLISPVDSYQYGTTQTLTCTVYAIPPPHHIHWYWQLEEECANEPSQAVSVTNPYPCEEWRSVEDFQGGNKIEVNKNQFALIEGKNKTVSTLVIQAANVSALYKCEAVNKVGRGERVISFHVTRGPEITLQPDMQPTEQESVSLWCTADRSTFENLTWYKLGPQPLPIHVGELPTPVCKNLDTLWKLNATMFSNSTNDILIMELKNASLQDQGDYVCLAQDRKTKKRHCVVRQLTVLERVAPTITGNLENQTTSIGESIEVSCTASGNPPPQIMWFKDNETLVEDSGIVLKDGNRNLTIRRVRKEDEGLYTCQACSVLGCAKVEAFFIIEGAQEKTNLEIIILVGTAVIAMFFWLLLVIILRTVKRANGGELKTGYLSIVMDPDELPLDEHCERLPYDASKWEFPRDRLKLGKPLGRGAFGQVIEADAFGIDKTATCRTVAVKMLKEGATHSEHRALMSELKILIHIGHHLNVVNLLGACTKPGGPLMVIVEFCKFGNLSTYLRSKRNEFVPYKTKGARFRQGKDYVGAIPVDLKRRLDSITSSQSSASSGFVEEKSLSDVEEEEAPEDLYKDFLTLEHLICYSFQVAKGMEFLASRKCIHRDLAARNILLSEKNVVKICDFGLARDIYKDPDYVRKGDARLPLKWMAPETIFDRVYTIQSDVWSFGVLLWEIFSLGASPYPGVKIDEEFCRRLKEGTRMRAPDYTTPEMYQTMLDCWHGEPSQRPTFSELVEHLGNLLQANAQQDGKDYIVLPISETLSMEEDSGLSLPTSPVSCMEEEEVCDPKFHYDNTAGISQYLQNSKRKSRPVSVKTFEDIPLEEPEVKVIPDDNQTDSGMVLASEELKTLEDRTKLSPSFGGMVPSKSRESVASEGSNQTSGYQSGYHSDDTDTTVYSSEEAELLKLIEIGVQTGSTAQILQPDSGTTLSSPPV
Procedure, shortened: as §1

MELK(h) = biological target: T7, MELK(h) (Homo sapiens, UniProt Q14680); details: read-out: residual kinase activity MELK(h)
T7 construct: purchased Eurofins KinaseProfiler
T7 sequence (Q14680 whole entry): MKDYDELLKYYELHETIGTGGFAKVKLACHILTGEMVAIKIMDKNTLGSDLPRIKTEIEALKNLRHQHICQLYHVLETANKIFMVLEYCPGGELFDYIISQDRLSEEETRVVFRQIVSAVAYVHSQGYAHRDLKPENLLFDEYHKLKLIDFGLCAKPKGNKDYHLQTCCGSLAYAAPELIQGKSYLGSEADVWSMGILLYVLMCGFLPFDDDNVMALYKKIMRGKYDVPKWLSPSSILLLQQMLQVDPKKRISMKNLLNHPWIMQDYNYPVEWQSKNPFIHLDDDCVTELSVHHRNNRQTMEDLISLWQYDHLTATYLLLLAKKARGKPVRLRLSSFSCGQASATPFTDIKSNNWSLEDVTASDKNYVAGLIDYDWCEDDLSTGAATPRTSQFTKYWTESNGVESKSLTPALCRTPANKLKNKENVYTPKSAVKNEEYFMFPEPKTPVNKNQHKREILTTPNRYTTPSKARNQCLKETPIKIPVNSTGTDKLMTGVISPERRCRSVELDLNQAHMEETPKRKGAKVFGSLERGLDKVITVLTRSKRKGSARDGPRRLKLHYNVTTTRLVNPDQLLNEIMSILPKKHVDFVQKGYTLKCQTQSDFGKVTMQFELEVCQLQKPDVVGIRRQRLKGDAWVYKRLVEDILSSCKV
Procedure, shortened: as §1

[1] = biological target: T8, PI3 Kinase (p110a(H1047R)/p85a)(h) (Homo sapiens, UniProt P42336, H1047R); details: read-out: residual kinase activity PI3 Kinase (p110a(H1047R)/p85a)(h)
T8 construct: purchased Eurofins KinaseProfiler
Procedure, shortened: as §1

PKCα(h) = biological target: T9, PKCα(h) (Homo sapiens, UniProt P17252); details: read-out: residual kinase activity PKCα(h)
T9 construct: purchased Eurofins KinaseProfiler
Procedure, shortened: as §1

PKD2(h) = biological target: T10, PKD2(h) (Homo sapiens, UniProt Q9BZL6); details: read-out: residual kinase activity PKD2(h)
T10 construct: purchased Eurofins KinaseProfiler
T10 sequence (Q9BZL6 1-878): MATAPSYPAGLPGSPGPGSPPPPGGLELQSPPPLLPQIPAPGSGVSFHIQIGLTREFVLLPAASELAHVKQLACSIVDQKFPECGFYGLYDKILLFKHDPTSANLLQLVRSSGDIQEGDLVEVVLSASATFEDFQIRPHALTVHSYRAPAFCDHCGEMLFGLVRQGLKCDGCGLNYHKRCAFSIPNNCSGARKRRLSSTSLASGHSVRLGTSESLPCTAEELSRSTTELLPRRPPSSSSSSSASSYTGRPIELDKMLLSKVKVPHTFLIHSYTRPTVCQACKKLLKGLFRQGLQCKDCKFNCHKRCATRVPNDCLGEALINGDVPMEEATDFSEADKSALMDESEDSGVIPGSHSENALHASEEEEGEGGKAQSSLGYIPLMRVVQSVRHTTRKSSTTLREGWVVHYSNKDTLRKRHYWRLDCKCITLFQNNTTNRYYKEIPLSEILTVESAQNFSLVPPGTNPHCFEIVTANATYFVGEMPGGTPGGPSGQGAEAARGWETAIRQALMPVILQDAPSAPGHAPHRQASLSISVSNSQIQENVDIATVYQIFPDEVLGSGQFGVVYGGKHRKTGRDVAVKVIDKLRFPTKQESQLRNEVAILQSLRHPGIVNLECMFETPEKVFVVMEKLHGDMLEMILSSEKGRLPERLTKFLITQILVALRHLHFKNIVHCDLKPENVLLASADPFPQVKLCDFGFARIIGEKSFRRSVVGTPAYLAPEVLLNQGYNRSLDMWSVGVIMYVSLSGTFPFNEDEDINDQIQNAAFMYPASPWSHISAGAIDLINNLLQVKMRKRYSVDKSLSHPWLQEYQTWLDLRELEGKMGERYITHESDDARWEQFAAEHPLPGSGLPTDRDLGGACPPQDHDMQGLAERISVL
Procedure, shortened: as §1

CNC(=O)c1ccc(Nc2ncc(C(F)(F)F)c(NCc3nccnc3N(C)S(C)(=O)=O)n2)cc1 [VS-6063, Defactinib]
remaining activity at 1 µM (ALK(h)): 96% | remaining activity at 1 µM (Abl(T315I)(h)): 44% | remaining activity at 1 µM (FGFR2(h)): 46% | remaining activity at 1 µM (FGFR4(h)): 104% | remaining activity at 1 µM (Flt3(D835Y)(h)): 7% | remaining activity at 1 µM (KDR(h)): 28% | remaining activity at 1 µM (MELK(h)): 9% | remaining activity at 1 µM [1]: 101% | remaining activity at 1 µM (PKCα(h)): 92% | remaining activity at 1 µM (PKD2(h)): 116%

CONC(=O)c1ccccc1Nc1cc(Nc2cc(C)nn2C(C)C)ncc1Cl [GSK2256098]
remaining activity at 1 µM (ALK(h)): 73% | remaining activity at 1 µM (Abl(T315I)(h)): 92% | remaining activity at 1 µM (FGFR2(h)): 98% | remaining activity at 1 µM (FGFR4(h)): 104% | remaining activity at 1 µM (Flt3(D835Y)(h)): 76% | remaining activity at 1 µM (KDR(h)): 88% | remaining activity at 1 µM (MELK(h)): 91% | remaining activity at 1 µM [1]: 97% | remaining activity at 1 µM (PKCα(h)): 95% | remaining activity at 1 µM (PKD2(h)): 90%

CNC(=O)c1cccc(C)c1Nc1nc(Nc2ccc(N3CCN(C4C5CC6CC4CC(O)(C6)C5)CC3)cc2OC)ncc1C(F)(F)F (stereo not shown) [SJP1602, 2-((2-((4-(4-((2s,5r)-5-hydroxyadamantan-2-yl)piperazin-1-yl)-2-methoxyphenyl)amino)-5-(trifluoromethyl)pyrimidin-4-yl)amino)-N,3-dimethylbenzamide]
inhibition at 1 µM (ALK(h)): 72% | remaining activity at 1 µM (ALK(h)): 28% | remaining activity at 1 µM (Abl(T315I)(h)): 106% | remaining activity at 1 µM (FGFR2(h)): 90% | remaining activity at 1 µM (FGFR4(h)): 102% | remaining activity at 1 µM (Flt3(D835Y)(h)): 87% | remaining activity at 1 µM (KDR(h)): 101% | remaining activity at 1 µM (MELK(h)): 74% | remaining activity at 1 µM [1]: 97% | remaining activity at 1 µM (PKCα(h)): 100% | remaining activity at 1 µM (PKD2(h)): 116%
